Source: patent US10729137B2, “Quaternary fungicidal mixture” (priority 2013, dated 2020)
Entries after “also recorded” stand apart in the source; their conditions may differ.

Assays:
[1] = test system: dollar spot, Sclerotinia homeocarpa; assay: Field study of disease control on creeping bentgrass plots (percent inhibition, Colby synergy); type: in vivo; details: four applications at 14 day intervals, rated 15 days after final application, chlorothalonil 3.1, iprodione 1.03, thiophanate methyl 1.03, tebuconazole 0.31 LBai/A where included
Description: In the context of the present subject matter, the term “synergy” is as defined by S. R. Colby in an article entitled “Calculation of the synergistic and antagonistic responses of herbicide combinations” published in the journal Weeds, 1967, 15, p. 20-22, incorporated herein by reference in its entirety. The action expected for a given combination of four active components can be calculated as follows:
[formula] in which E represents the expected percentage of fungicidal control (percent inhibition) for the multiple mixture of fungicides at defined doses (for example equal to x, y, z and w, respectively). X is the percentage of fungicide control observed by chlorothalonil at a defined dose (equal to x). Y is the percentage of fungicide control observed by iprodione at a defined dose (equal to y). Z is the percentage of fungicide control observed by thiophanate methyl at a defined dose (equal to z). W is the percentage of fungicide control observed by tebuconazole at a defined dose (equal to w). Here, efficacy or percent inhibition is determined in %. 0% means efficacy that corresponds to the Control, i.e., as if no treatment had been applied. Whereas, a percent inhibition of 100% means that no infection is observed. When the percent inhibition observed for the combination is greater than E, there is a synergistic effect. When the percent inhibition observed for the combination is equal to E, there is an additive effect and wherein the percent inhibition observed for the combination is lower than E, there is an antagonistic effect.
In the Colby model, one can transform its use of “percent inhibition” (or control) to “percent-of-untreated Control” to solve for E1 rather than E and simplify the equation:
[formula] where E1=100−E (conversely, solving for E, 100−E1=E), X1=100−X, Y1=100−Y, Z1=100−Z, and W1=100−W. Although many combinations of fungicides have been studied and evaluated by means of the Colby Index, it is quite clear by modeling such synthetic expressions of synergy that the addition of a third, or even fourth, active ingredient to the premix may encounter the Point of Diminishing Returns caused by correction factors for 3- and 4-way interactions that offset the increase in E (or decrease in E1). In marked contrast, the present subject matter has shown an expansive effect and performance boost so great that differences between the observed and expected values computed according to Colby can best be used as a descriptive statistic confirming the quarternary fungicidal mixture's obvious effect.
(§1) A field study was conducted to identify which combinations would maintain or improve Turf Quality (TQ) and prevent or cure crown, basal or foliar pathogens such as dollar spot. Each solo treatment, 2-way (Pair), 3-way (Triad), and the present quaternary fungicidal mixture was applied bi-weekly beginning Jul. 1, 2013 prior to any evidence of decline in TQ or appearance of disease. Experimental plots were laid out in a Randomized Complete Block design.
(§2) The dosage of each fungicidal active substance was held constant regardless of whether it appeared alone or in combination with other fungicides in order to quantify synergy according to the Colby formula. The quaternary mixture of the present subject matter was applied at the lowest rate specified herein, about 5.5 lb active substance per acre. Applications were made to replicate plots of creeping bentgrass (Agrostis stolonifera), each measuring 3 ft×5 ft. The turf was mowed as needed to maintain standard fairway height (blade length less than 0.5″). Four applications were made at 14 day re-treatment intervals, which is a conventional treatment schedule at the time of year when outbreaks of turfgrass disease occur reliably in the mid-Atlantic region (Greenville, Del.).
The mix rate and volume of dilute spray applied to each plot was held constant. […]

[2] = test system: creeping bentgrass (Agrostis stolonifera); assay: Field study, Turf Quality (TQ) rating of treated plots; type: in vivo; details: ordinal scale 1-9 (8 and higher ideal, under 6 unacceptable), same plots, rates and timing, 15 days after final application
Protocol: as §1, §2
The mix rate and volume of dilute spray applied to each plot was held constant. A CO2 backpack sprayer outfitted with TeeJet AI9504E flat fan nozzle delivered a water dilution of each treatment at the use rate of 43.5 gallons per acre (407 liters Ha^−1) and 35 psi (0.375 gallons per minute).
Plots were evaluated and disease or cause of lesion identified 15 days after the final scheduled application, which was made on 12 August. At that time researchers rated each plot's TQ, the incidence of disease and its severity. Percent disease ratings were calculated on the basis of the percent of area of each plot showing symptoms of a disease, primarily dollar spot. Turf quality and color ratings are typically used as an indicator of the health of the turfgrass. Turf quality is scored on an ordinal scale from 1-9, where plots rated 8 and higher are considered ideal for color, uniformity and density, around 6.5 and above is considered acceptable, and ratings under 6 unacceptable for turfgrass disease and/or turf quality.
Disease pressure evidenced by the untreated control ratings was considered severe. Six untreated control plots averaged 40% incidence, primarily due to a continuous increase in dollar spot pressure over time. By the end of the trial, TQ of the untreated plots declined to a low level, where leaf die-back, bleaching and lesions rated an average TQ of 4.2. Turf quality of plots treated with each active substance alone at these dosages was poor, averaging 3.9.

| SMILES | Percent Inhibition [1] [%] | Turf Quality [2] | Percent Inhibition ([1]; listed as iprodione) | Turf Quality ([2]; listed as iprodione) | Percent Inhibition ([1]; listed as thiophanate methyl) | Turf Quality ([2]; listed as thiophanate methyl) |
| --- | --- | --- | --- | --- | --- | --- |
| N#Cc1c(Cl)c(Cl)c(Cl)c(C#N)c1Cl [Chlorothalonil] | 15.8 | 4.3 | – | – | – | – |
| CC(C)NC(=O)N1CC(=O)N(c2cc(Cl)cc(Cl)c2)C1=O [Iprodione] | 5.8 | 4.0 | no better than the untreated control | no better than the untreated control | – | – |
| CC(C)(C)C(O)(CCc1ccc(Cl)cc1)Cn1cncn1 (stereo not drawn) [Tebuconazole] | 19.3 | 4.0 | – | – | – | – |
| COC(=O)NC(=S)Nc1ccccc1NC(=S)NC(=O)OC [Thio methyl, Thiophanate methyl] | 0 | 3.3 | – | – | no better than the untreated control | no better than the untreated control; also recorded: significantly lower ratings than those of the untreated Control |
